Laboratory results as given in PubChem BioAssay (NCI).
Several values for one entry are separate records, joined by “and”; a condition that tells them apart may be missing. Equal entries are not always repeated.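 These data come from cells grown in 96-well plates and exposed to compound for 48 hours at five concentrations. Here, GI50 denotes the concentration required for 50% inhibition of growth. The concentration for full growth arrest is given as TGI.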

Columns and labels:
Experiment in all cases: DTP human tumour cell line panel, 48 h
ACHN renal = tested on: ACHN renal
CAKI-1 renal = tested on: CAKI-1 renal
CCRF-CEM leukemia = tested on: CCRF-CEM leukemia
IGROV1 ovarian = tested on: IGROV1 ovarian
LOX IMVI melanoma = tested on: LOX IMVI melanoma
M14 melanoma = tested on: M14 melanoma
NCI-H226 lung = tested on: NCI-H226 lung
OVCAR-8 ovarian = tested on: OVCAR-8 ovarian
SNB-75 CNS = tested on: SNB-75 CNS
UACC-257 melanoma = tested on: UACC-257 melanoma

Compound	GI50 (ACHN renal) [µM]	TGI (ACHN renal)	GI50 (CAKI-1 renal)	TGI (CAKI-1 renal)	GI50 (CCRF-CEM leukemia) [µM]	TGI (CCRF-CEM leukemia)	GI50 (IGROV1 ovarian)	TGI (IGROV1 ovarian)	GI50 (LOX IMVI melanoma)	TGI (LOX IMVI melanoma)	GI50 (M14 melanoma) [µM]	TGI (M14 melanoma)	TGI (NCI-H226 lung)	TGI (OVCAR-8 ovarian)	GI50 (SNB-75 CNS)	TGI (SNB-75 CNS)	GI50 (UACC-257 melanoma)	TGI (UACC-257 melanoma)	GI50 (NCI-H226 lung)	GI50 (OVCAR-8 ovarian)
CN1CCN(C2CCN(C(=O)Nc3cc(Oc4ccc(NC(=O)C5(C(=O)Nc6ccc(F)cc6)CC5)c(F)c4)ccn3)CC2)CC1	1.3	> 10 µM	0.932 µM	> 10 µM	1.26	> 5.7 µM	1.1 µM	> 10 µM	1.04 µM	> 10 µM	0.639	1.8 µM	> 3.12 µM	> 10 µM	0.365 µM	> 1.97 µM	0.73 µM	2.27 µM		
CC(C)(C)NNC(=O)CCn1[nH]c(=O)c(Cl)c(Cl)c1=O		> 100 µM		> 100 µM		> 100 µM		> 100 µM		> 100 µM		> 100 µM	> 100 µM	> 100 µM		> 100 µM		> 100 µM		
CC1(C)N=C(N)N=C(N)N1c1ccc(CCCCc2ccc(Cl)cc2S(=O)(=O)F)c(Cl)c1	2.62	17.6 µM	2.04 µM	18.2 µM	0.372	8.16 µM	0.192 µM	21 µM	0.242 µM	13.4 µM	0.421	17.8 µM	29.2 µM	16.8 µM	1.39 µM	23 µM	0.808 µM	17 µM	1.23 µM	0.499 µM
O=C(Nc1ccc(Br)cc1F)c1cc(F)ccc1O	0.499	11.3 µM	0.314 µM	2.62 µM	2.4	13.9 µM	0.37 µM	> 100 µM	0.405 µM	2.91 µM	0.514	4.07 µM	3.46 µM	15 µM	0.225 µM	2.11 µM	0.466 µM	4 µM	0.67 µM	1.3 µM
CC(=O)CCn1ncc(Cl)c(Cl)c1=O		30.9 µM		3.66 µM		> 100 µM		35.9 µM		30.5 µM		29.7 µM	31.7 µM	54.9 µM		72 µM		31.5 µM		
NC(=S)N/N=C/C(=O)O	> 100	> 100 µM	> 100 µM	> 100 µM	65.4	> 100 µM	43.6 µM	> 100 µM	> 100 µM	> 100 µM	> 100	> 100 µM	> 100 µM	> 100 µM	> 100 µM	> 100 µM	30.1 µM	> 100 µM	> 100 µM	> 100 µM
Oc1ccc(Nc2ncnc3c2sc2ncccc23)cc1	< 0.01	1.42 µM	< 0.0185 µM	9.21 µM	0.0307	> 100 µM	> 23.8 µM	> 100 µM	0.0368 µM	> 100 µM	0.012	0.0551 µM	> 100 µM	> 30.9 µM	0.0595 µM	7.35 µM	0.0726 µM	> 100 µM	0.352 µM	0.0261 µM
COc1cccc2c1C(=O)c1c(O)c3c(c(O)c1C2=O)C[C@@](O)(C(=O)CO)C[C@@H]3OC1CC(N)CC(C)O1 (stereo not given in full)	0.0175	0.289 µM	0.00936 µM and 0.00812 µM and 0.0263 µM	0.119 µM and 0.377 µM	< 0.0125	0.374 µM and 0.159 µM	0.0504 µM and 0.0436 µM	1.25 µM and 1.6 µM	0.0295 µM and 0.0231 µM	0.262 µM and 0.12 µM	0.036	0.278 µM and 0.218 µM	0.282 µM and 0.132 µM	1.13 µM and 0.546 µM	0.00885 µM and 0.047 µM	0.195 µM and 0.161 µM	0.103 µM	0.33 µM and 0.195 µM	0.00987 µM and 0.0723 µM and 0.0435 µM	0.0359 µM and 0.052 µM
COc1cccc(F)c1C(=O)c1cnc(NC2CCN(S(C)(=O)=O)CC2)nc1N	2.16	> 25 µM	3.4 µM	> 22.9 µM	2.51	> 25 µM	3.9 µM	> 25 µM	1.85 µM	> 25 µM	5.33	> 25 µM	> 18.9 µM	> 25 µM	4.13 µM	9.57 µM	3.97 µM	15.3 µM	3.72 µM	4.08 µM
N#Cc1c(NC(=O)NCc2ccccc2)sc2c1CCCCC2	0.629	> 100 µM	0.659 µM	> 100 µM	0.357	> 100 µM	0.719 µM	> 100 µM	0.573 µM	> 100 µM	0.415	> 100 µM	> 28.8 µM	> 100 µM	0.261 µM	4.91 µM	1.5 µM	> 100 µM	1.05 µM	1.61 µM
Cn1cc(C2=C(c3ccc(N)cc3)C(=O)NC2=O)c2ccccc21	13.4	> 25 µM	> 18.9 µM	> 25 µM	12.3	> 25 µM	> 23.7 µM	> 25 µM	9.88 µM	> 25 µM	> 20.4	> 25 µM	> 25 µM	> 25 µM	0.571 µM	> 15.2 µM	> 25 µM	> 25 µM	16.1 µM	> 25 µM
COc1ccc(OC)c2c1[nH]c(=O)c1c3ccccc3cn21	1.11	2.37 µM	1.09 µM	2.39 µM	1.17	3.81 µM	< 0.0281 µM	1.43 µM	1.4 µM	2.88 µM	1.79	3.37 µM	3.29 µM	3.36 µM	1.44 µM	2.83 µM	2 µM	3.73 µM	1.61 µM	1.26 µM
COC(=O)C[C@](O)(CCCC(C)(C)O)C(=O)O[C@@H]1C(OC)=C[C@]23CCCN2CCc2cc4c(cc2[C@H]13)OCO4	0.0407	4.64 µM and 0.541 µM	0.252 µM	1.61 µM and 1.2 µM	0.0282		0.0284 µM	1.4 µM and 0.795 µM	0.0129 µM		0.0228				0.0235 µM	0.657 µM and 0.0931 µM	0.205 µM and 0.0232 µM	0.839 µM and 0.0881 µM	0.0112 µM	0.0287 µM
O=C1CCC2(c3ccc(Cl)cc3)Nc3ncccc3N12 (stereo not given)		> 100 µM		> 100 µM		> 100 µM		> 100 µM		> 100 µM		> 100 µM	> 100 µM	> 100 µM		> 100 µM		> 100 µM		
COc1cc(C(=O)N2CCN(C=O)C2=S)cc(OC)c1OC	20.1	44.1 µM	13.6 µM	26.7 µM	18.3	49 µM	21.9 µM	57.3 µM	16.4 µM	33.5 µM	20.6	41.6 µM	84.6 µM	65.2 µM	10.9 µM	34.6 µM	19.9 µM	45.4 µM	35.9 µM	24 µM
O=C(Nc1ccc2ncccc2c1)Nc1ccc2ncccc2c1		> 100 µM		> 100 µM		> 100 µM		> 100 µM		> 100 µM		> 100 µM	> 100 µM	> 100 µM		> 100 µM		> 100 µM		
C/C=C(\C)C(=O)O[C@H]1C=CC(=O)O[C@H]1CCC(=O)[C@H](C)O	11	23.4 µM	7.16 µM	17.3 µM	0.014	9.1 µM	22 µM	46.8 µM	11.8 µM	27.4 µM	14.6	32.8 µM	34.8 µM	52.8 µM	20.4 µM	41.4 µM	22.6 µM	> 57 µM	15.1 µM	20.7 µM
CCCCOC(=O)CNC(=O)OC/C=C/C#CC#C/C=C/COC(=O)NCC(=O)OCCCC	> 100	> 100 µM	> 100 µM	> 100 µM	> 100	> 100 µM	> 100 µM	> 100 µM		> 10 µM	> 100	> 100 µM	> 10 µM	> 100 µM	> 10 µM	> 10 µM and 88.8 µM		> 10 µM		> 100 µM
CCOC(=O)c1ccc(NC(=O)Oc2ccc3c(C)cc(=O)oc3c2)cc1		> 100 µM		> 100 µM		58.4 µM		> 100 µM		> 100 µM		> 100 µM	81.3 µM	> 100 µM		98.1 µM		> 100 µM		
O=c1/c(=C/c2ccccc2[N+](=O)[O-])sc2nnc(-c3ccco3)n12		> 100 µM		> 100 µM		49.8 µM		56.3 µM		31.8 µM		33.3 µM	61 µM	32.5 µM		84.7 µM		> 100 µM		
Cc1cn2c(=O)c3ncn(C4OC(CO)C(O)C4O)c3n(C)c2n1 (stereo not given)		> 100 µM		> 100 µM		> 100 µM		> 100 µM		> 100 µM		> 100 µM	> 100 µM	> 100 µM		> 100 µM		> 100 µM		
Cc1ccc(S(=O)(=O)N(C=O)N=C2CCN(Cc3ccccc3)CC2)cc1		> 100 µM		> 100 µM		> 100 µM		> 100 µM		> 100 µM		> 100 µM	> 100 µM	> 100 µM		> 100 µM		> 100 µM		
CC[As](CC)SC[C@H](C)C(=O)N1CCC[C@H]1C(=O)O	0.0548	0.169 µM	< 0.0181 µM	0.0648 µM	0.017	0.0573 µM	0.214 µM	1.11 µM	0.0458 µM	0.102 µM	0.0257	0.0895 µM	0.614 µM	0.472 µM	0.0796 µM	0.628 µM	0.282 µM	1.48 µM	0.201 µM	0.123 µM
C=C1C(=O)OC2CC(C)C(C(CC(C)=O)OC(C)=O)=CCC12 (stereo not given)		22.4 µM		8.05 µM		> 35 µM		29 µM		18.8 µM		36.9 µM	> 66.4 µM	> 51.8 µM		54.2 µM		37.4 µM		
O=C(Nc1ccn(CCO)c(=O)n1)c1ccccc1		> 100 µM		> 100 µM		> 100 µM		> 100 µM		> 100 µM		> 100 µM	> 100 µM	> 100 µM		> 100 µM		> 100 µM		
CCN(CC)CCC(CNc1ccnc2cc(Cl)ccc12)c1ccc(Cl)cc1 (stereo not given)	0.467	1.78 µM	0.496 µM	2.36 µM	1.27	6.29 µM	2.27 µM	7.33 µM	1.02 µM	2.38 µM	0.211	0.47 µM	8.19 µM	4.79 µM	1.3 µM	2.64 µM	1.02 µM	2.37 µM	2.46 µM	1.86 µM
CCOC(=O)C1=CN(C)C=C(C(=O)OCC)C1c1cc(Br)c(OCC)c(OC)c1	> 100	> 100 µM	53 µM	> 100 µM	> 100	> 100 µM	> 100 µM	> 100 µM	> 100 µM	> 100 µM	> 100	> 100 µM	> 100 µM	> 100 µM	20.8 µM	> 100 µM	> 100 µM	> 100 µM	> 100 µM	> 100 µM
N#CN/C(N)=N/CO		> 100 µM		> 100 µM		> 100 µM		> 100 µM		> 57.7 µM		> 100 µM	> 100 µM	> 100 µM		> 100 µM		> 100 µM		
CC(=O)Nc1ccc(S(=O)(=O)N2C(=O)CCC2C(=O)Nc2ccc(Br)cc2)cc1 (stereo not given)	2.13	12.2 µM	4.37 µM	17.7 µM	1.49	11 µM	2.28 µM	10.9 µM	0.972 µM	7.39 µM	2.92	32.8 µM	13.2 µM	11.9 µM	1.81 µM	6.24 µM	2.1 µM	9.5 µM	2.26 µM	2.6 µM
CC12C/C(=C\c3ccccc3)C(=O)C3C1CCCC32		> 100 µM		> 100 µM		> 100 µM		> 100 µM		> 100 µM		> 100 µM	> 100 µM	> 100 µM		> 100 µM		> 100 µM		
